In ChEMBL document CHEMBL5260858, “Targeting mycobacterial membranes and membrane proteins: Progress and limitations” (Bioorg Med Chem, 2023) one finds MIC, MIC90 and Activity data, which are given here for 17 molecules.

Converted amounts (≈) assume the structure as drawn.

For assay [1], the system named is Mycobacterium tuberculosis. The experiment in a line: Antitubercular activity against extensively drug resistant Mycobacterium tuberculosis assessed as bacterial growth inhibition incubated for 6 days by resazurin based fluorescence assay. The format is functional. The settings on record: 144 h, time 6 day. In general terms: Resazurin is reduced to fluorescent resorufin, in cell work by metabolically active cells.

In assay [2] the test system is Mycobacterium tuberculosis. The experiment in a line: Antitubercular activity against multidrug resistant Mycobacterium tuberculosis assessed as bacterial growth inhibition incubated for 6 days by resazurin based fluorescence assay. The assay is classed as functional. The note with it: 144 h, time 6 day.
Assay [3] has as its system Mycobacterium tuberculosis. The experiment in a line: Antitubercular activity against Mycobacterium tuberculosis H37Rv overexpressing DprE1 assessed as bacterial growth inhibition. The assay is classed as functional.
Assay [4] deals with Mycobacterium tuberculosis. The experiment in a line: Antitubercular activity against multidrug-resistant clinical isolate Mycobacterium tuberculosis CDCT-2 assessed as bacterial growth inhibition. The format is functional.
The subject of assay [5] is Mycobacterium tuberculosis. The experiment in a line: Antitubercular activity against multidrug-resistant clinical isolate Mycobacterium tuberculosis CDCT-27 assessed as bacterial growth inhibition. The format is functional.
Assay [6] concerns Mycobacterium tuberculosis. The experiment in a line: Antitubercular activity against multidrug-resistant clinical isolate Mycobacterium tuberculosis CDCT-3 assessed as bacterial growth inhibition. The assay is classed as functional.
In assay [7] the test system is Mycobacterium tuberculosis. The experiment in a line: Antitubercular activity against multidrug resistant Mycobacterium tuberculosis SK-7782 assessed as bacterial growth inhibition by resazurin microtiter assay. The assay is classed as functional.
The subject of assay [8] is Mycobacterium tuberculosis. The experiment in a line: microbe, parasite or virus in culture. The settings on record: 144 h.
The subject of assay [9] is Mycobacterium tuberculosis. The experiment in a line: microbe, parasite or virus in culture. The settings on record: 144 h. This is another data set of the same source.
For assay [10], the system named is Mycobacterium tuberculosis. The experiment in a line: Antimycobacterial activity against BTZ-resistant Mycobacterium tuberculosis NTB1 assessed as bacterial growth inhibition incubated for 6 days by resazurin dye based assay. The format is functional. The note with it: NTB1, 144 h, time 6 day.
Assay [11] has as its system Mycobacterium tuberculosis. The experiment in a line: Antimycobacterial activity against multidrug resistant Mycobacterium tuberculosis 16995 assessed as bacterial growth inhibition incubated for 7 days by microplate Alamar blue assay. The assay is classed as functional. The settings on record: Mycobacterium tuberculosis, 16995, 168 h; time 7 day.
In assay [12] the test system is Mycobacterium tuberculosis. The experiment in a line: Antimycobacterial activity against multidrug resistant Mycobacterium tuberculosis 16833 assessed as bacterial growth inhibition incubated for 7 days by microplate Alamar blue assay. The format is functional. The note with it: Mycobacterium tuberculosis, 16833, 168 h; time 7 day.
Assay [13] concerns Mycobacterium tuberculosis. The experiment in a line: Antimycobacterial activity against clinically isolated multidrug resistant Mycobacterium tuberculosis assessed as bacterial growth inhibition incubated for 14 days by CLSI protocol based assay. The assay is classed as functional. The note with it: 336 h, time 14 day.
The test system of assay [14] is Mycobacterium tuberculosis. The experiment in a line: Antitubercular activity against multidrug resistant Mycobacterium tuberculosis clinical isolate assessed as bacterial growth inhibition. The format is functional.
Assay [15] concerns Mycobacterium tuberculosis. The experiment in a line: Antitubercular activity against rifampicin resistant Mycobacterium tuberculosis ATCC 35838 infected in RAW264.7 cells assessed as inhibition of intracellular bacterial growth incubated for 6 days by microplate alamar blue assay. The assay is classed as functional. Also noted: scale not given: the % may be the effect or the level left. The note with it: time 6 day.

Assay [16] has as its system Mycobacterium tuberculosis. The experiment in a line: Antitubercular activity against isoniazid resistant Mycobacterium tuberculosis ATCC 35822 infected in RAW264.7 cells assessed as inhibition of intracellular bacterial growth incubated for 6 days by microplate alamar blue assay. The format is functional. The arrangement: scale not given: the % may be the effect or the level left. The settings on record: time 6 day.

Assay [17] has as its system Mycobacterium tuberculosis. The experiment in a line: Antitubercular activity against ethambutol resistant Mycobacterium tuberculosis ATCC 35837 inhibition infected in RAW264.7 cells assessed as inhibition of intracellular bacterial growth incubated for 6 days by microplate alamar blue assay. The settings on record: time 6 day. The assay is classed as functional. The arrangement: scale not given: the % may be the effect or the level left.

For the molecule `c1cc2c(s1)CCOC21CCN(Cc2ccc3c(c2)OCCO3)CC1`, the MIC in [1] and in assay [2] was 0.3 µM (≈ 0.107 µg/mL) in each case.
As for `C[C@@H](NC(=O)c1cc([N+](=O)[O-])cc(C(F)(F)F)c1)c1ccccc1`, the MIC in assay [3] was found to be 310 ng/mL (≈ 0.916 µM).
Consider `CCCc1ccc(NC(=O)COc2cc(C)nc3ccc(OC)cc23)cc1`, for which the MIC is less than 2 ng/mL in assay [4], 4 ng/mL (≈ 0.011 µM) in assay [5] and 8 ng/mL (≈ 0.022 µM) in [6].
The like results for `CCCCCc1ccc(NC(=O)COc2cc(C)nc3ccc(OC)cc23)cc1` were, in that order, less than 2 ng/mL, less than 2 ng/mL and less than 2 ng/mL.
The like results for `CCc1ccc(NC(=O)COc2cc(C)nc3ccc(OC)cc23)cc1` were, in that order, less than 2 ng/mL, 8 ng/mL (≈ 0.0228 µM) and 8 ng/mL (≈ 0.0228 µM).
A word on the MIC90: it is an inhibitory concentration at the 90% level, which refers to growth in some studies and to a panel of isolates in others. As to `CC1(C)CC(=O)C(=CNc2ccccc2O)C(=O)C1`, in assay [7], the MIC90 turned out to be 8000 ng/mL (≈ 30.9 µM).
For the molecule `CNC(=O)c1c(-c2ccc(O)cc2)oc2ccc(O)c(CN3CCCCC3)c12`, the values for the MIC in assay [8] and in assay [9] were 0.06 µM (≈ 0.0228 µg/mL) and 0.125 µM (≈ 0.0476 µg/mL), respectively.
As for `COc1ccc(/C=C2/S/C(=N/N=C/c3ccccc3O)NC2=O)cc1`, in assay [7], the MIC90 was found to be 1000 ng/mL (≈ 2.83 µM).
For `O=c1nc(N2CCN(S(=O)(=O)C3CC3)CC2)sc2c([N+](=O)[O-])cc(C(F)(F)F)cc12`, the MIC in [10] was 14700 ng/mL (≈ 31.7 µM).
In the case of `O=c1nc(N2CC3CN(Cc4ccc(OC(F)(F)F)cc4)CC3C2)sc2c([N+](=O)[O-])cc(C(F)(F)F)cc12` (stereo not given), the MIC turned out to be 0.053 µM (≈ 0.0297 µg/mL) in assay [11] and 0.085 µM (≈ 0.0476 µg/mL) in [12].
Take `CCS(=O)(=O)N1CCN(c2nc(=O)c3cc(C(F)(F)F)cc([N+](=O)[O-])c3s2)CC1`: in assay [10], the MIC is 25100 ng/mL (≈ 55.5 µM).
On to `O=c1nc(N2CC3CN(Cc4ccc(Cl)c(F)c4)CC3C2)sc2c([N+](=O)[O-])cc(C(F)(F)F)cc12` (stereo not given), for which the MIC in assay [11] is 0.073 µM (≈ 0.0386 µg/mL); in assay [12], 0.102 µM (≈ 0.0539 µg/mL).
Consider `CCc1ccc([C@H]2C[C@@H](C(F)(F)F)n3ncc(C(=O)NCc4ccc(OC)cc4)c3N2)cc1`, for which the figures for the MIC in assay [1] and in assay [2] were 0.3 µM (≈ 0.138 µg/mL) and 0.16 µM (≈ 0.0734 µg/mL), respectively.
Consider `O=c1nc(N2CCN(S(=O)(=O)c3cccs3)CC2)sc2c([N+](=O)[O-])cc(C(F)(F)F)cc12`, for which the MIC in assay [10] was more than 100000 ng/mL.
In the case of `C[C@@]1(COc2ccc(N3CCC(Oc4ccc(OC(F)(F)F)cc4)CC3)cc2)Cn2cc([N+](=O)[O-])nc2O1`, the MIC in assay [13] turned out to be 6 ng/mL (≈ 0.0112 µM).
In the case of `COc1nc2ccc(Br)cc2cc1[C@@H](c1ccccc1)[C@@](O)(CCN(C)C)c1cccc2ccccc12` [BEDAQUILINE], the MIC in assay [14] stood at 10 ng/mL (≈ 0.018 µM).
As to `CC(C)=CCC/C(C)=C/CNCCNC1C2CC3CC(C2)CC1C3` (stereo not given) [SQ109], the Activity in assay [15], in assay [16] and in [17] was 99% in each case.
